Values belong to the compound of their own block, whether it stands above or below them. Calls of active or inactive are those of the source. No cut-off for these calls is given here.
Key:
[1] = target: T1, Protein deacetylase HDAC6 (Homo sapiens, UniProt Q9UBN7); assay: Inhibition of human HDAC6 using fluorogenic substrate incubated for 1 hrs by fluorescence plate reader assay
T1 sequence (Q9UBN7 whole entry): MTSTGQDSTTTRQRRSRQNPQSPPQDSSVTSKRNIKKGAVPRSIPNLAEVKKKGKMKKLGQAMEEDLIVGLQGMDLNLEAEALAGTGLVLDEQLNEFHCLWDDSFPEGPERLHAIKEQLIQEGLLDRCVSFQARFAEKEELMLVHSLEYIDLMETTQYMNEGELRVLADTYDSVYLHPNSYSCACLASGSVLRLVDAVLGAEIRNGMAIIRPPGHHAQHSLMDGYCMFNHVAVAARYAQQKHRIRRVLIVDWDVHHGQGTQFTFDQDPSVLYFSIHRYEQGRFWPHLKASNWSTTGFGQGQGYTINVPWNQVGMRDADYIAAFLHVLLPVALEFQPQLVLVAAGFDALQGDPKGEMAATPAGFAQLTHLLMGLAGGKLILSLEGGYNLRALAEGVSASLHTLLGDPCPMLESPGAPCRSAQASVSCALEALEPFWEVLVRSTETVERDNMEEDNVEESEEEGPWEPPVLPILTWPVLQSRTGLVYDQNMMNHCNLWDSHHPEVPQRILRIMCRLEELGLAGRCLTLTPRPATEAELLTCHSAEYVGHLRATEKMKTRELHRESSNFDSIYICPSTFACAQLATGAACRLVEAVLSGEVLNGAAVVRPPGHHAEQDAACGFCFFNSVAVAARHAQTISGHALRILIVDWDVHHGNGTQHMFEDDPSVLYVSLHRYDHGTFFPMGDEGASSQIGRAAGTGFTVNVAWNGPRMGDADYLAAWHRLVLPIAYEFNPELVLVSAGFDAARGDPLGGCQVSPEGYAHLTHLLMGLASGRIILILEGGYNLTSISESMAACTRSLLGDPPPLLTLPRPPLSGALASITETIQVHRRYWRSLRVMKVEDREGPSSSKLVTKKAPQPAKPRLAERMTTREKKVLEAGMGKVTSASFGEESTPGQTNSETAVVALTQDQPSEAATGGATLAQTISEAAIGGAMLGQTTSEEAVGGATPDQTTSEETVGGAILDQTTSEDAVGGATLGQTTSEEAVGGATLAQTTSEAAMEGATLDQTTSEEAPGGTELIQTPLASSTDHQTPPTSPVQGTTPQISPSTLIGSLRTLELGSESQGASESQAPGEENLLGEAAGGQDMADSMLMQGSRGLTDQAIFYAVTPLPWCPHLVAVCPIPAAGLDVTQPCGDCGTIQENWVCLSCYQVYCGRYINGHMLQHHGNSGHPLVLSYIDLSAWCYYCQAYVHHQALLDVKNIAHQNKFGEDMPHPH

[2] = Inhibition of Cu2+ induced amyloid beta (1 to 42 residues) (unknown origin) aggregation by measuring reduction in fluorescence intensity at 20 uM after 24 hrs by thioflavin-T fluorescence method relative to control
[3] = Disaggregation of Cu2+ induced amyloid beta (1 to 42 residues) (unknown origin) aggregation measuring reduction in fluorescence intensity at 20 uM after 24 hrs by thioflavin-T fluorescence method relative to control; parameters: scale not given: the % may be the effect or the level left
[4] = test system: SH-SY5Y; assay: Neuroprotective activity against Cu2+/amyloid beta (1 to 42)-induced toxicity in human SH-SY5Y cells assessed as increase in cell viability at 3 uM after 24 hrs by MTT assay (reference value: 47.2%); type: functional
[5] = target: Histone deacetylase 4 (Homo sapiens, UniProt P56524); assay: Inhibition of human HDAC4 using fluorogenic substrate incubated for 1 hrs by fluorescence plate reader assay
[6] = target: T2, Polyamine deacetylase HDAC10 (Homo sapiens, UniProt Q969S8); assay: Inhibition of human HDAC10 using fluorogenic substrate incubated for 1 hrs by fluorescence plate reader assay
T2 sequence (Q969S8 whole entry): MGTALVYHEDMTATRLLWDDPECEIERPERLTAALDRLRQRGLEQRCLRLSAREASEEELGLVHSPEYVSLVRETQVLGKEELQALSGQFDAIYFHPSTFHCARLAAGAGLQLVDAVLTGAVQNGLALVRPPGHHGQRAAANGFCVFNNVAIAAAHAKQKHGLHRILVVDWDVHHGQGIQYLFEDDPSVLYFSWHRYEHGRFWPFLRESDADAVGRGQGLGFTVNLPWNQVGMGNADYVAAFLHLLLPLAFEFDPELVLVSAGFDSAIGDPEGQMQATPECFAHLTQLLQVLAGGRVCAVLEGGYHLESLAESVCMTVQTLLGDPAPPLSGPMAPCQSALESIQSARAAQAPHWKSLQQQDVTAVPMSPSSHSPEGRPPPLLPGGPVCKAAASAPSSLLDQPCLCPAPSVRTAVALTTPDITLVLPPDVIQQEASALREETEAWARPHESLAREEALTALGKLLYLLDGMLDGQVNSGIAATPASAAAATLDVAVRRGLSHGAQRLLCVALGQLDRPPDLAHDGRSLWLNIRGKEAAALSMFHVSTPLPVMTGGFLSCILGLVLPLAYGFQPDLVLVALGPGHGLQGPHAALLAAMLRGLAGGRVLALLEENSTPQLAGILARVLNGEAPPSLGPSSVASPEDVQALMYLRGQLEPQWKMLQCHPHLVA

[7] = target: T3, Histone deacetylase 8 (Homo sapiens, UniProt Q9BY41); assay: Inhibition of human HDAC8 using fluorogenic substrate incubated for 1 hrs by fluorescence plate reader assay
T3 sequence (Q9BY41 whole entry): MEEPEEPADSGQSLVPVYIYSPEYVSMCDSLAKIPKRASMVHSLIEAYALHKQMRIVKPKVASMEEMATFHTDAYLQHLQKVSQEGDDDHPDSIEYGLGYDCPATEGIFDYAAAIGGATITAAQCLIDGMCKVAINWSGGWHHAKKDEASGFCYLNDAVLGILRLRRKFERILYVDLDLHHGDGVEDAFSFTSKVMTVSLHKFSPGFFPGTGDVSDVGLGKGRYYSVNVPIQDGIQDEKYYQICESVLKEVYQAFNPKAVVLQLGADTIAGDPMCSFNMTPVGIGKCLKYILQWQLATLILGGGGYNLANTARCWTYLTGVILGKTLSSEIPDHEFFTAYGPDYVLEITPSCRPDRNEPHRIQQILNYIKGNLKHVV

[8] = target: Histone deacetylase 1 (Homo sapiens, UniProt Q13547); assay: Inhibition of human HDAC1 using fluorogenic substrate incubated for 1 hrs by fluorescence plate reader assay
[9] = target: Histone deacetylase 2 (Homo sapiens, UniProt Q92769); assay: Inhibition of human HDAC2 using fluorogenic substrate incubated for 1 hrs by fluorescence plate reader assay
[10] = target: T4, Histone deacetylase 11 (Homo sapiens, UniProt Q96DB2); assay: Inhibition of human HDAC11 using fluorogenic substrate incubated for 1 hrs by fluorescence plate reader assay
T4 sequence (Q96DB2 whole entry): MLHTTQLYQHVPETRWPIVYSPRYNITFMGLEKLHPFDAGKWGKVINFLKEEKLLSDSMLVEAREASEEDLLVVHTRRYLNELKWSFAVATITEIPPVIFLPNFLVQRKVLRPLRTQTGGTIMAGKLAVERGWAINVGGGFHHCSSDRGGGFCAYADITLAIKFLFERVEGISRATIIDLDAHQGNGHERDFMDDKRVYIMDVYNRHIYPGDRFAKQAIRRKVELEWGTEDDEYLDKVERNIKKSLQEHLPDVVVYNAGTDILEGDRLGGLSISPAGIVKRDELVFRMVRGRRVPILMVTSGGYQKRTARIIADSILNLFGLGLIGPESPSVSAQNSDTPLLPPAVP

[11] = test system: SH-SY5Y; assay: Cytotoxicity against human SH-SY5Y cells assessed as cell viability incubated for 24 hrs by MTT assay; type: cell-based
[12] = test system: SH-SY5Y; assay: Neuroprotective activity against amyloid beta (1 to 42)-induced cytotoxicity in human SH-SY5Y cells assessed as increase in cell viability at 3 uM after 24 hrs by MTT assay (reference value: 60.4%); type: functional
[13] = test system: SH-SY5Y; assay: Induction of neurogenesis in human SH-SY5Y cells assessed as induction of GAP-43 mRNA expression at 10 uM measured after 24 hrs by RT-PCR analysis relative to control; type: functional
[14] = test system: SH-SY5Y; assay: Induction of neurogenesis in human SH-SY5Y cells assessed as induction of N-myc mRNA expression at 10 uM measured after 24 hrs by RT-PCR analysis relative to control; type: functional
[15] = test system: SH-SY5Y; assay: Induction of neurogenesis in human SH-SY5Y cells assessed as induction of MAP2 mRNA expression at 10 uM measured after 24 hrs by RT-PCR analysis relative to control; type: functional
[16] = test system: SH-SY5Y; assay: Induction of neurogenesis in human SH-SY5Y cells assessed as fold induction of GAP-43 mRNA expression at 10 uM measured after 24 hrs by RT-PCR analysis relative to retinoic acid; type: functional
[17] = test system: SH-SY5Y; assay: Induction of neurogenesis in human SH-SY5Y cells assessed as fold induction of N-myc mRNA expression at 10 uM measured after 24 hrs by RT-PCR analysis relative to retinoic acid; type: functional
[18] = test system: SH-SY5Y; assay: Induction of neurogenesis in human SH-SY5Y cells assessed as fold induction of MAP2 mRNA expression at 10 uM measured after 24 hrs by RT-PCR analysis relative to retinoic acid; type: functional
[19] = species: Homo sapiens; assay: Selectivity ratio of IC50 for human HDAC6 to IC50 for human HDAC1
[20] = species: Homo sapiens; assay: Selectivity ratio of IC50 for human HDAC6 to IC50 for human HDAC2
[21] = species: Homo sapiens; assay: Selectivity ratio of IC50 for human HDAC6 to IC50 for human HDAC8
[22] = species: Homo sapiens; assay: Selectivity ratio of IC50 for human HDAC6 to IC50 for human HDAC4
[23] = species: Homo sapiens; assay: Selectivity ratio of IC50 for human HDAC6 to IC50 for human HDAC10
[24] = species: Homo sapiens; assay: Selectivity ratio of IC50 for human HDAC6 to IC50 for human HDAC11
[25] = target: T5, Protein deacetylase HDAC6 (Homo sapiens) (UniProt Q9UBN7); assay: Inhibition of HDAC6 in human SH-SY5Y cells assessed as increase in acetylated alpha tubulin level measured after 24 hrs by Western blot analysis; type: cell-based; settings: dose 0.25-1 µM
T5 sequence (whole entry): T1 sequence (Q9UBN7 whole entry)

[26] = target: T5, Protein deacetylase HDAC6 (Homo sapiens); assay: Inhibition of HDAC6 in human SH-SY5Y cells assessed as increase in acetylated histone level measured after 24 hrs by Western blot analysis; type: cell-based
[27] = target: T5, Protein deacetylase HDAC6 (Homo sapiens); assay: Inhibition of HDAC6 in human SH-SY5Y cells assessed as reduction in tau phosphorylation at Ser396 residue by Western blot analysis; type: cell-based
[28] = target: T5, Protein deacetylase HDAC6 (Homo sapiens); assay: Inhibition of HDAC6 in human SH-SY5Y cells assessed as reduction in tau phosphorylation at Ser396 residue at 20 uM by Western blot analysis; type: cell-based
[29] = test system: SH-SY5Y; assay: Induction of neurite outgrowth in human SH-SY5Y cells at 10 uM incubated for 3 days by inverted microscopy; type: functional, cell-based; settings: time 3.0 day

Chain of Histone deacetylase 4 (P56524 whole entry): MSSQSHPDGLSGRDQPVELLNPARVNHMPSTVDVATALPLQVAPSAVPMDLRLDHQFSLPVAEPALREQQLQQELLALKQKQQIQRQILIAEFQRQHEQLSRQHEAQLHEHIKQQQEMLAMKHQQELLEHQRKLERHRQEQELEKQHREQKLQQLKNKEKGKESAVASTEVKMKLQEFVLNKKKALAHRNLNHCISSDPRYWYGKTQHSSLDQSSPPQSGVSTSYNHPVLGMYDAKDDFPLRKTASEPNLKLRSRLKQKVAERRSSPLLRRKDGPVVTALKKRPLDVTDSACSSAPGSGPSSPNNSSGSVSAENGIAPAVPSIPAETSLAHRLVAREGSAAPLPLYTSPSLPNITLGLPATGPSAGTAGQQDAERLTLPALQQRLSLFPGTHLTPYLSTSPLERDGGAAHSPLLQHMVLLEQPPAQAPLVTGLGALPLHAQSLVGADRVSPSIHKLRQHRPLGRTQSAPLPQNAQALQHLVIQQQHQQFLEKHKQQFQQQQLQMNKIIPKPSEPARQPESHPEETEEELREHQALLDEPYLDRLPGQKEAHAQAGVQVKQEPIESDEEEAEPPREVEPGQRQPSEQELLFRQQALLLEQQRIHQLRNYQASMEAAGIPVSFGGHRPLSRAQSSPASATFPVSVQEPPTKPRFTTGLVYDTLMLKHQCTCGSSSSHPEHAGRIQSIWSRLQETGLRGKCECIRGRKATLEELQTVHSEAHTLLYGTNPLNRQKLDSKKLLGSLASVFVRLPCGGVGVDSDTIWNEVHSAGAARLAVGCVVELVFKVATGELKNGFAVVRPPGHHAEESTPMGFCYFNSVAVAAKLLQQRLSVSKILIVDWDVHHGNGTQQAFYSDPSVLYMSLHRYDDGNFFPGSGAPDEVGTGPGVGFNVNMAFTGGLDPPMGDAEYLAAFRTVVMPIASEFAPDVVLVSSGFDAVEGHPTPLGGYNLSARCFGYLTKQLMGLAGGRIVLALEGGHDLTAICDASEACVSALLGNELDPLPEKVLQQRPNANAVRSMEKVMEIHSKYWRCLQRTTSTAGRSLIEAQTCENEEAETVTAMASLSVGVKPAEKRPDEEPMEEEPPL
Chain of Histone deacetylase 2 (Q92769 whole entry): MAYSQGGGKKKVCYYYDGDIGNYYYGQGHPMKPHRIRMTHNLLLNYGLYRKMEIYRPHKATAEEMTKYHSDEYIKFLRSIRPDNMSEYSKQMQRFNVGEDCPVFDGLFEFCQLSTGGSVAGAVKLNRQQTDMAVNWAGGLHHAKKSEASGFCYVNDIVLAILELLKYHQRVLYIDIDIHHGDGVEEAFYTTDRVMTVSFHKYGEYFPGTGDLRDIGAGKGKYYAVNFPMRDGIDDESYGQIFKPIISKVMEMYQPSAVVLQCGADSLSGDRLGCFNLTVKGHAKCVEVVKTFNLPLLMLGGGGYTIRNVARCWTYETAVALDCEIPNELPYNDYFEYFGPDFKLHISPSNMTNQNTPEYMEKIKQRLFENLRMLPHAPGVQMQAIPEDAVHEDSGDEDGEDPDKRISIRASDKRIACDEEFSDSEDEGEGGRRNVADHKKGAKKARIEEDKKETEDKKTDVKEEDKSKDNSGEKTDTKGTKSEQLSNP
Chain of Histone deacetylase 1 (Q13547 whole entry): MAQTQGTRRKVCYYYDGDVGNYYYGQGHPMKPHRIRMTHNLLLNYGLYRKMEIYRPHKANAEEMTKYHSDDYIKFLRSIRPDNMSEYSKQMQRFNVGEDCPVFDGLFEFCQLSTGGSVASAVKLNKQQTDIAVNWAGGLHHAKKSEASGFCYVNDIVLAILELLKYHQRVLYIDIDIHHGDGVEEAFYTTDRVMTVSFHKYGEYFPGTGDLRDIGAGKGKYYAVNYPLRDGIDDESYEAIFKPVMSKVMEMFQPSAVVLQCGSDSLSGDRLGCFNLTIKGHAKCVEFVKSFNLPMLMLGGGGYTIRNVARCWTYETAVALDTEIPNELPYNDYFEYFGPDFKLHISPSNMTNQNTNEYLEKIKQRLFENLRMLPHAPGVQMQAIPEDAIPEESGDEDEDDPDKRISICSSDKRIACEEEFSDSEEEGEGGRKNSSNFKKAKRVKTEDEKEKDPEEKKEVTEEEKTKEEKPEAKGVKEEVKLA

- IC50 [1]: > 1000 nM
Structure (SMILES): CNC(=O)Cn1cc(CN2c3ccccc3Sc3ccccc32)cn1

- IC50 [1]: > 1000 nM
Structure (SMILES): CCNC(=O)Cn1cc(CN2c3ccccc3Sc3ccccc32)cn1

- inhibition [2]: 38.9%
- Activity [3]: Active
Structure (SMILES): Oc1c(I)cc(Cl)c2cccnc12 [CLIOQUINOL]
- Activity [4]: 86.2%

- IC50 [1]: 463 nM
Structure (SMILES): O=C(/C=C/c1ccc(CN2c3ccccc3Sc3ccccc32)cc1)NO

- IC50 [1]: > 1000 nM
Structure (SMILES): CNC(=O)c1ccc(CN(C)C23CC4C[C@@](C)(C2)C[C@](C)(C4)C3)nc1

- IC50 [1]: 884 nM
Structure (SMILES): O=C(NO)c1coc(CN2c3ccccc3Sc3ccccc32)n1

- IC50 [1]: 11 nM
Structure (SMILES): O=C(NO)c1ccc(CN2c3ccccc3Sc3ccccc32)nc1 [listing 1 of 2 here]

- IC50 [1]: 2.54 nM
- IC50 [5]: 5.63 µM
- IC50 [6]: 8.63 µM
- IC50 [7]: 6.12 µM
- IC50 [8]: 743 nM
- IC50 [9]: 1960 nM
- IC50 [10]: 4.3 µM
Structure (SMILES): Cl.O=C(NO)c1ccc(CN2c3ccccc3Sc3ccccc32)nc1
- IC50 [11]: 115 µM
- Activity [12]: 76.3%
- Activity [4]: 82%
- Activity [13]: 5.71
- Activity [14]: 6.28
- Activity [15]: 4.79
- fold change (FC) [16]: 2
- fold change (FC) [17]: 2
- fold change (FC) [18]: 2

Structure (SMILES): COc1cc(/C=C/C(=O)CC(=O)/C=C/c2ccc(O)c(OC)c2)ccc1O [CURCUMIN]
- Activity [12]: 74.6%

- IC50 [1]: > 1000 nM
Structure (SMILES): CCNC(=O)c1ccc(CN2c3ccccc3Sc3ccccc32)nc1

- IC50 [1]: 343 nM
Structure (SMILES): O=C(CCc1ccc(CN2c3ccccc3Sc3ccccc32)cc1)NO

- Selectivity ratio [19]: 292
- Selectivity ratio [20]: 772
- Selectivity ratio [21]: 2410
- Selectivity ratio [22]: 2220
- Selectivity ratio [23]: 3400
- Selectivity ratio [24]: 1690
- inhibition [25]: Dose-Dependent Effect
- inhibition [26]: Active
- inhibition [27]: Dose-Dependent Effect
- inhibition [28]: 50%
- Activity [3]: 40%
Structure (SMILES): O=C(NO)c1ccc(CN2c3ccccc3Sc3ccccc32)nc1 [listing 2 of 2 here]
- Activity [29]: Active

- IC50 [1]: > 1000 nM
Structure (SMILES): CNC(=O)c1ccc(CN2c3ccccc3Sc3ccccc32)nc1

- IC50 [1]: 835 nM
Structure (SMILES): CN(Cc1ccc(C(=O)NO)cn1)C12CC3C[C@@](C)(C1)C[C@](C)(C3)C2

- IC50 [1]: 53 nM
Structure (SMILES): COc1ccc2c(c1)c1c(n2Cc2ccc(C(=O)NO)cn2)CCN(C)C1

- IC50 [1]: 83 nM
Structure (SMILES): Cc1ccc2c(c1)c1c(n2Cc2ccc(C(=O)NO)cn2)CCN(C)C1

- IC50 [1]: > 1000 nM
Structure (SMILES): O=C(Cn1cc(CN2c3ccccc3Sc3ccccc32)cn1)NO

- IC50 [1]: 537 nM
Structure (SMILES): C[C@]12CC3CC(NCc4ccc(C(=O)NO)cn4)(C1)C[C@@](C)(C3)C2

Structure (SMILES): CC1=C(/C=C/C(C)=C/C=C/C(C)=C/C(=O)O)C(C)(C)CCC1 [TRETINOIN]
- Activity [13]: 2.07
- Activity [14]: 2.3
- Activity [15]: 2.13
